From ChEMBL document CHEMBL3045770, “Design and synthesis of some thieno[2,3-c]pyridazine derivatives of expected anticancer activity” (2013)

Tests used:
Format in all cases: functional
SNB-75 = experiment: Cytotoxicity against Homo sapiens (human) SNB75 assessed as cell growth at 10 uM after 48 hr by SRB assay relative to control; details: SNB-75, 48 h, read-out: Activity
SF-295 = experiment: Cytotoxicity against Homo sapiens (human) SF295 assessed as cell growth at 10 uM after 48 hr by SRB assay relative to control; details: SF-295, 48 h, read-out: Activity
HT-29 = experiment: Cytotoxicity against Homo sapiens (human) HT-29 assessed as cell growth at 10 uM after 48 hr by SRB assay relative to control; details: HT-29, 48 h, read-out: Activity
A549 = experiment: Cytotoxicity against Homo sapiens (human) A549 assessed as cell growth at 10 uM after 48 hr by SRB assay relative to control; details: A549, 48 h, read-out: Activity
SR = experiment: Cytotoxicity against Homo sapiens (human) SR assessed as cell growth at 10 uM after 48 hr by SRB assay relative to control; details: read-out: Activity
RPMI-8226 = experiment: Cytotoxicity against Homo sapiens (human) RPMI8226 assessed as cell growth at 10 uM after 48 hr by SRB assay relative to control; details: RPMI-8226, 48 h, read-out: Activity
RXF 393 = experiment: Cytotoxicity against Homo sapiens (human) RXF393 assessed as cell growth at 10 uM after 48 hr by SRB assay relative to control; details: RXF 393, 48 h, read-out: Activity
CAKI-1 = experiment: Cytotoxicity against Homo sapiens (human) Caki1 assessed as cell growth at 10 uM after 48 hr by SRB assay relative to control; details: CAKI-1, 48 h, read-out: Activity
UO-31 = experiment: Cytotoxicity against Homo sapiens (human) UO31 assessed as cell growth at 10 uM after 48 hr by SRB assay relative to control; details: UO-31, 48 h, read-out: Activity
Malme-3M = experiment: Cytotoxicity against Homo sapiens (human) MALME-3M assessed as cell growth at 10 uM after 48 hr by SRB assay relative to control; details: read-out: Activity
OVCAR-8 [1] = experiment: Cytotoxicity against Homo sapiens (human) OVCAR8 assessed as cell growth at 10 uM after 48 hr by SRB assay relative to control; details: OVCAR-8, 48 h, read-out: Activity
UACC-62 = experiment: Cytotoxicity against Homo sapiens (human) UACC62 assessed as cell growth at 10 uM after 48 hr by SRB assay relative to control; details: UACC-62, 48 h, read-out: Activity
SK-MEL-5 = experiment: Cytotoxicity against Homo sapiens (human) SK-MEL-5 assessed as cell growth at 10 uM after 48 hr by SRB assay relative to control; details: SK-MEL-5, 48 h, read-out: Activity
M14 [2] = experiment: Cytotoxicity against Homo sapiens (human) M14 assessed as cell growth at 10 uM after 48 hr by SRB assay relative to control; details: M14, 48 h, read-out: Activity
U-251 = experiment: Cytotoxicity against Homo sapiens (human) U251 assessed as cell growth at 10 uM after 48 hr by SRB assay relative to control; details: U-251, 48 h, read-out: Activity
CCRF-CEM = experiment: Cytotoxicity against Homo sapiens (human) CCRF-CEM assessed as cell growth at 10 uM after 48 hr by SRB assay relative to control; details: read-out: Activity
HL-60(TB) = experiment: Cytotoxicity against Homo sapiens (human) HL-60(TB) assessed as cell growth at 10 uM after 48 hr by SRB assay relative to control; details: HL-60, 48 h, read-out: Activity
MDA-MB-468 [3] = experiment: Cytotoxicity against Homo sapiens (human) MDA-MB-468 assessed as cell growth at 10 uM after 48 hr by SRB assay relative to control; details: MDA-MB-468, 48 h, read-out: Activity
MDA-MB-231 [4] = experiment: Cytotoxicity against Homo sapiens (human) MDA-MB-231 assessed as cell growth at 10 uM after 48 hr by SRB assay relative to control; details: MDA-MB-231, 48 h, read-out: Activity
DU-145 = experiment: Cytotoxicity against Homo sapiens (human) DU145 assessed as cell growth at 10 uM after 48 hr by SRB assay relative to control; details: DU-145, 48 h, read-out: Activity
TK-10 = experiment: Cytotoxicity against Homo sapiens (human) TK10 assessed as cell growth at 10 uM after 48 hr by SRB assay relative to control; details: TK-10, 48 h, read-out: Activity
OVCAR-8 [5] = experiment: Cytotoxicity against Homo sapiens (human) OVCAR8 cells after 48 hr by SRB assay; details: OVCAR-8, 48 h
OVCAR-3 = experiment: Cytotoxicity against Homo sapiens (human) OVCAR3 cells after 48 hr by SRB assay; details: OVCAR-3, 48 h
M14 [6] = experiment: Cytotoxicity against Homo sapiens (human) M14 cells after 48 hr by SRB assay; details: M14, 48 h
SF-539 = experiment: Cytotoxicity against Homo sapiens (human) SF539 cells after 48 hr by SRB assay; details: SF-539, 48 h
SF-268 = experiment: Cytotoxicity against Homo sapiens (human) SF268 cells after 48 hr by SRB assay; details: SF-268, 48 h
MDA-MB-468 [7] = experiment: Cytotoxicity against Homo sapiens (human) MDA-MB-468 cells after 48 hr by SRB assay; details: MDA-MB-468, 48 h
MDA-MB-231 [8] = experiment: Cytotoxicity against Homo sapiens (human) MDA-MB-231 cells after 48 hr by SRB assay; details: MDA-MB-231, 48 h
SN12C = experiment: Cytotoxicity against Homo sapiens (human) SN12C cells after 48 hr by SRB assay
NCI-H226 = experiment: Cytotoxicity against Homo sapiens (human) NCI-H226 cells after 48 hr by SRB assay; details: NCI-H226, 48 h
HOP-62 = experiment: Cytotoxicity against Homo sapiens (human) HOP62 cells after 48 hr by SRB assay; details: HOP-62, 48 h
MOLT-4 = experiment: Cytotoxicity against Homo sapiens (human) MOLT4 cells after 48 hr by SRB assay; details: MOLT-4, 48 h
NCI-H322M = experiment: Cytotoxicity against Homo sapiens (human) NCI-H322M assessed as cell growth at 10 uM after 48 hr by SRB assay relative to control; details: read-out: Activity
[9] = read-out: LC50 (the source's name)

In the case of `CC(=O)Oc1c(C2=NN(C(C)=O)C(c3ccccc3[N+](=O)[O-])O2)sc2nnc(-c3ccccc3)c(-c3ccccc3)c12` (stereo not given), the growth at 10 µM (SNB-75) is reported as 76.3%, the growth at 10 µM (SF-295) is reported as 85% and the growth at 10 µM (HT-29) is reported as 87.5%. It also gave a growth at 10 µM (A549) of 103%, a growth at 10 µM (SR) of 49% and a growth at 10 µM (RPMI-8226) of 57.4%. The growth at 10 µM (RXF 393) was 93.5%, the growth at 10 µM (CAKI-1) was 98% and the growth at 10 µM (UO-31) was 78.9%. For the same compound, the growth at 10 µM (Malme-3M) was 93.2%, the growth at 10 µM (OVCAR-8 [1]) was 90.1% and the growth at 10 µM (UACC-62) was 80%. It also gave a growth at 10 µM (SK-MEL-5) of 98.5%, a growth at 10 µM (M14 [2]) of 91.8% and a growth at 10 µM (U-251) of 80.5%. For the same compound, the growth at 10 µM (CCRF-CEM) was 19.6%, the growth at 10 µM (HL-60(TB)) was 58.9% and the growth at 10 µM (MDA-MB-468 [3]) was 86.5%. For the same compound, the growth at 10 µM (MDA-MB-231 [4]) was 89.6%, the growth at 10 µM (DU-145) was 104% and the growth at 10 µM (TK-10) was 107%.

`Oc1c(-c2nnc(-c3ccc(Cl)cc3)o2)sc2nnc(-c3ccccc3)c(-c3ccccc3)c12` was tested, and the growth at 10 µM (SNB-75) was 62.8%, the growth at 10 µM (SF-295) was 23.5% and the growth at 10 µM (HT-29) was 91.2%. It also gave a growth at 10 µM (A549) of 51.2%, a growth at 10 µM (SR) of 35.1% and a growth at 10 µM (RPMI-8226) of 40.4%. For the same compound, the GI50 (OVCAR-8 [5]) was 4.38 µM, the TGI (OVCAR-8 [5]) was 18.3 µM and the CC50 (OVCAR-8 [5]; [9]) was 0.0183 µM. It also gave a GI50 (OVCAR-3) of 3.77 µM, a TGI (OVCAR-3) of 6.1 µM and a GI50 (M14 [6]) of 4.99 µM. It also gave a TGI (M14 [6]) of 12.2 µM, a GI50 (SF-539) of 4.75 µM and a TGI (SF-539) of 15.8 µM. It also gave a CC50 (SF-539; [9]) of 0.0183 µM, a GI50 (SF-268) of 5.52 µM and a TGI (SF-268) of 18.3 µM. The GI50 (MDA-MB-468 [7]) was 5.04 µM, the TGI (MDA-MB-468 [7]) was 10.5 µM and the GI50 (MDA-MB-231 [8]) was 4.56 µM. It also gave a TGI (MDA-MB-231 [8]) of 12.3 µM, a CC50 (MDA-MB-231 [8]; [9]) of 0.0183 µM and a GI50 (SN12C) of 4.65 µM. For the same compound, the TGI (SN12C) was 17.6 µM, the growth at 10 µM (RXF 393) was 72.3% and the growth at 10 µM (CAKI-1) was 24.5%. For the same compound, the GI50 (NCI-H226) was 3.06 µM, the TGI (NCI-H226) was 18.3 µM and the CC50 (NCI-H226; [9]) was 0.0183 µM. It also gave a GI50 (HOP-62) of 4.99 µM, a TGI (HOP-62) of 18.3 µM and a GI50 (MOLT-4) of 4.47 µM. For the same compound, the TGI (MOLT-4) was 18.3 µM, the CC50 (MOLT-4; [9]) was 0.0183 µM and the growth at 10 µM (OVCAR-8 [1]) was 46.1%. For the same compound, the growth at 10 µM (UACC-62) was 38%, the growth at 10 µM (SK-MEL-5) was 53.7% and the growth at 10 µM (M14 [2]) was 55.3%. For the same compound, the growth at 10 µM (U-251) was 32.6%, the growth at 10 µM (CCRF-CEM) was 27.6% and the growth at 10 µM (HL-60(TB)) was 52.5%. For the same compound, the growth at 10 µM (MDA-MB-468 [3]) was 44.6%, the growth at 10 µM (MDA-MB-231 [4]) was 77.9% and the growth at 10 µM (DU-145) was 71.9%. For the same compound, the growth at 10 µM (TK-10) was 59%.

With `CC(=O)Oc1c(C2=NN(C(C)=O)C(c3ccc(F)cc3)O2)sc2nnc(-c3ccccc3)c(-c3ccccc3)c12` (stereo not given) the growth at 10 µM (SNB-75) was 78.1%, the growth at 10 µM (HT-29) was 102% and the growth at 10 µM (SR) was 79.3%. The growth at 10 µM (RPMI-8226) was 71.3%, the growth at 10 µM (NCI-H322M) was 85.7% and the growth at 10 µM (RXF 393) was 88%. The growth at 10 µM (UO-31) was 83.3%, the growth at 10 µM (OVCAR-8 [1]) was 101% and the growth at 10 µM (UACC-62) was 57.5%. It also gave a growth at 10 µM (SK-MEL-5) of 88.2%, a growth at 10 µM (M14 [2]) of 102% and a growth at 10 µM (U-251) of 105%. It also gave a growth at 10 µM (CCRF-CEM) of 39.1%, a growth at 10 µM (HL-60(TB)) of 83.8% and a growth at 10 µM (MDA-MB-468 [3]) of 84%. It also gave a growth at 10 µM (MDA-MB-231 [4]) of 85.9%, a growth at 10 µM (DU-145) of 114% and a growth at 10 µM (TK-10) of 94.1%.
